Assay results from the Kinase Knowledgebase extract (Sharma et al. 2016).

Molecular target: MAPK14 (human) (UniProt Q16539)
Test: TNF-alpha Release Inhibition (LPS-stimulated PBMCs)
Settings: pbmc

Chain of MAPK14 (human) (Q16539 whole entry, looked up): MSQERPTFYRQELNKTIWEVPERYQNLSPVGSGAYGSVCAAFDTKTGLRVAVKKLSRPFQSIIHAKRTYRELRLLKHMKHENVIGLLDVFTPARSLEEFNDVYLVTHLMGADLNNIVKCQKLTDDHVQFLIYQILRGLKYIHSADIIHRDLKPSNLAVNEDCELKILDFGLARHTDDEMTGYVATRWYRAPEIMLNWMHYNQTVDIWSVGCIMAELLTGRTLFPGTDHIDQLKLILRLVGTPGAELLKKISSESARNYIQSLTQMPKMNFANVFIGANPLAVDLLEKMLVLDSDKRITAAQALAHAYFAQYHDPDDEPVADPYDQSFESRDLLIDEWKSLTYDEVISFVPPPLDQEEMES

Row | IC50 [nM] | SMILES
1 | 400 | CN(C)c1ccc2c(-c3ccncc3)c(-c3ccc(F)cc3)[nH]c2n1
2 | 6500 | COc1ccc2c(-c3ccncc3)c(-c3ccc(I)cc3)[nH]c2c1
3 | 100 | CC(=O)Nc1ccc2c(-c3ccncc3)c(-c3ccc(F)cc3)[nH]c2n1
4 | 200 | COc1ccc2c(-c3ccncc3)c(-c3ccc(F)cc3)[nH]c2n1
5 | 300 | COc1ccc2c(-c3ccncc3)c(-c3cccc(F)c3)[nH]c2c1
6 | 100 | COc1ccc2c(-c3ccncc3)c(-c3cccc(I)c3)[nH]c2c1
7 | 125 | COc1ccc2c(-c3ccncc3)c(-c3cccc(Cl)c3)[nH]c2c1
8 | 300 | Fc1ccc(-c2[nH]c3nc(NCc4ccccc4)ccc3c2-c2ccncc2)cc1
9 | 6 | CCCCOc1cc(OC)nc2[nH]c(-c3ccc(F)cc3)c(-c3ccncc3)c12
10 | > 10000 | Oc1ccc2c(-c3ccncc3)c(-c3ccc(F)cc3)[nH]c2n1
11 | 15 | CCCCOc1cc(O)nc2[nH]c(-c3ccc(F)cc3)c(-c3ccncc3)c12
12 | 200 | Nc1ccc2c(-c3ccncc3)c(-c3ccc(F)cc3)[nH]c2c1
13 | 40 | Nc1ccc2c(-c3ccncc3)c(-c3cccc(I)c3)[nH]c2n1
14 | 9 | Nc1ccc2c(-c3ccncc3)c(-c3cccc(Cl)c3)[nH]c2n1
15 | 30 | Nc1ccc2c(-c3ccncc3)c(-c3ccc(F)c(F)c3)[nH]c2n1
16 | 400 | Fc1ccc(-c2[nH]c3ncccc3c2-c2ccncc2)cc1
17 | 2 | Nc1cc(OCc2ccc(F)cc2)c2c(-c3ccncc3)c(-c3ccc(F)cc3)[nH]c2n1
18 | > 10000 | Fc1ccc(-c2[nH]c3ccccc3c2-c2ccncc2)cc1
19 | 400 | COc1ccc2c(-c3ccncc3)c(-c3ccc(F)cc3)[nH]c2c1
20 | 60 | CCOc1ccc(-c2[nH]c3nc(N)ccc3c2-c2ccncc2)cc1Cl
